We go through two molecules from article PMC2957182 (Molecular and cellular endocrinology, 2010).

The test system of one assay is Akt. The settings on record: HNMPA-(AM3) 500 μM, ILP3 10 pmol or ILP4 20 pmol, 2 h, immunoblot. Background: In western blotting, separated proteins are transferred to a membrane and probed.
Another assay relates to ovaries. The settings on record: bovine insulin; ref Riehle and Brown, 1999; cited from earlier work.

Consider `CC(=O)OCOC(c1ccc2ccccc2c1)P(=O)(OCOC(C)=O)OCOC(C)=O` (centres unmarked) [HNMPA-(AM3)], for which the “Akt phosphorylation in ovaries with ILPs plus HNMPA-(AM3)” value in the assay with Akt is listed as “no change in phosphorylation”.

As for bovine insulin: bovine insulin, the “Ecdysteroid production by ovaries” value in the assay with ovaries was “stimulates ecdysteroid production”.
